Values quoted from earlier work, collected in patent US20170232011A1, “PHARMACEUTICAL COMPOSITION AND METHOD FOR THE TREATMENT OF URINARY TRACT INFECTIONS” (priority 2016, published 2017).

Legend:
[1] = tested on: Staphylococcus saprophyticus
[2] = tested on: Coagulase negative staphylococci
[3] = 100 mg oral dose

| Compound | activity against E. coli (E. coli) | activity against Staphylococcus saprophyticus [1] | activity against Coagulase negative staphylococci [2] | activity against Enterococcus faecalis (Enterococcus faecalis) | activity against Staphylococcus aureus (Staphylococcus aureus) | activity against Streptococcus agalactiae (Streptococcus agalactiae) | activity against Citrobacter species (Citrobacter species) | activity against Klebsiella species (Klebsiella species) | plasma levels ([3]; plasma) | level in the urine ([3]; urine) | oral dose excreted directly into the urine chemically unchanged |
| --- | --- | --- | --- | --- | --- | --- | --- | --- | --- | --- | --- |
| O=C1CN(N=Cc2ccc([N+](=O)[O-])o2)C(=O)N1 [Nitrofurantoin, 1-[[[5-nitro-2-furanyl]methylene]amino]-2,4-imidazolidinedione] | good activity | good activity | good activity | good activity | good activity | good activity | good activity | good activity | less than 1 μg/ml | 200 µg/mL |  |
| Nc1ccc(N=Nc2ccccc2)c(N)n1 [Phenazopyridine, 3-phenyldiazenylpyridine-2,6-diamine] |  |  |  |  |  |  |  |  |  |  | ~65% |
